# Source: patent US20240409531A1, “BENZOXAZINONE DERIVATIVES AS SELECTIVE CYTOTOXIC AGENTS” (Merck Sharp & Dohme LLC, priority 2021, published 2024)
# Test system: PBMCs infected with VSV-G pseudotyped HIV virus (VSV-G/pNLGI-P2A-ΔEnv)
# Assay: cells
# Assay type: cell-based
# Conditions: Homo sapiens, PBMC, read-out: TACK EC50 (nM)
row,Compound,EC50 [nM]
1,"Nc1nccn(Cc2cc3c(cc2F)[C@@](C#CC2CC2)(C(F)(F)F)OC(=O)N3)c1=O (single isomer, unassigned) [Example 1A]",39
2,"O=C1Nc2cc(Cn3cnccc3=O)c(F)cc2[C@@](C#CC2CC2)(C(F)(F)F)O1 (single isomer, unassigned) [Example 2A]",88
3,"Nc1cncn(Cc2cc3c(cc2F)[C@@](C#CC2CC2)(C(F)(F)F)OC(=O)N3)c1=O (single isomer, unassigned) [Example 3A]",46
4,"COc1cc(=O)n(Cc2cc3c(cc2F)[C@@](C#CC2CC2)(C(F)(F)F)OC(=O)N3)cn1 (single isomer, unassigned) [Example 4A]",25
5,"COCc1cc(=O)n(Cc2cc3c(cc2F)[C@@](C#CC2CC2)(C(F)(F)F)OC(=O)N3)cn1 (single isomer, unassigned) [Example 5A]",35
6,"Cc1cc(=O)n(Cc2cc3c(cc2F)[C@@](C#CC2CC2)(C(F)(F)F)OC(=O)N3)cn1 (single isomer, unassigned) [Example 6A]",43
7,"O=C1Nc2cc(Cn3cnc(C(F)F)cc3=O)c(F)cc2[C@@](C#CC2CC2)(C(F)(F)F)O1 (single isomer, unassigned) [Example 7A]",45
8,"O=C1Nc2cc(Cn3cccn3)c(F)cc2[C@@](C#CC2CC2)(C(F)(F)F)O1 (single isomer, unassigned) [Example 29A]",428
9,"NS(=O)(=O)c1ccc(Cc2ccc3c(c2)NC(=O)O[C@]3(C#CC2CC2)C(F)(F)F)cc1 (single isomer, unassigned) [Example 30A]",755
10,"Nc1nccc(Cc2cc3c(cc2F)[C@@](C#CC2CC2)(C(F)(F)F)OC(=O)N3)n1 (single isomer, unassigned) [Example 31A]",91
11,"N#Cc1c(Cc2cc3c(cc2F)[C@@](C#CC2CC2)(C(F)(F)F)OC(=O)N3)ccnc1N (single isomer, unassigned) [Example 32A]",111
12,"CC(F)(F)[C@@]1(C#CC2CC2)OC(=O)Nc2cc(Cn3ccnc(N)c3=O)ccc21 [Example 8, (S)-7-((3-amino-2-oxopyrazin-1(2H)-yl)methyl)-4-(cyclopropylethynyl)-4-(1,1-difluoroethyl)-1,4-dihydro-2H-benzo[d][1,3]oxazin-2-one]",30
13,"CC(F)(F)[C@@]1(C#CC2CC2)OC(=O)Nc2cc(Cn3cnccc3=O)ccc21 [Example 9, (S)-4-(cyclopropylethynyl)-4-(1,1-difluoroethyl)-7-((6-oxopyrimidin-1(6H)-yl)methyl)-1,4-dihydro-2H-benzo[d][1,3]oxazin-2-one]",90
14,"Cc1cc(=O)n(Cc2ccc3c(c2)NC(=O)O[C@]3(C#CC2CC2)C(C)(F)F)cn1 [Example 10, (S)-4-(cyclopropylethynyl)-4-(1,1-difluoroethyl)-7-((4-methyl-6-oxopyrimidin-1(6H)-yl)methyl)-1,4-dihydro-2H-benzo[d][1,3]oxazin-2-one]",66
15,"COc1cc(=O)n(Cc2ccc3c(c2)NC(=O)O[C@]3(C#CC2CC2)C(C)(F)F)cn1 [Example 11, (S)-4-(cyclopropylethynyl)-4-(1,1-difluoroethyl)-7-((4-methoxy-6-oxopyrimidin-1(6H)-yl)methyl)-1,4-dihydro-2H-benzo[d][1,3]oxazin-2-one]",47
16,"COCc1cc(=O)n(Cc2ccc3c(c2)NC(=O)O[C@]3(C#CC2CC2)C(C)(F)F)cn1 [Example 12, (S)-4-(cyclopropylethynyl)-4-(1,1-difluoroethyl)-7-((4-(methoxymethyl)-6-oxopyrimidin-1(6H)-yl)methyl)-1,4-dihydro-2H-benzo[d][1,3]oxazin-2-one]",68
17,"COc1cc(=O)n(Cc2cc3c(cc2Cl)[C@@](C#CC2CC2)(C(C)(F)F)OC(=O)N3)cn1 [Example 13, (S)-6-chloro-4-(cyclopropylethynyl)-4-(1,1-difluoroethyl)-7-((4-methoxy-6-oxopyrimidin-1(6H)-yl)methyl)-1,4-dihydro-2H-benzo[d][1,3]oxazin-2-one]",11

row,Compound,EC50 [nM]
1,"COc1cc(=O)n(Cc2cc3c(cc2Cl)[C@@](C#CC2CC2)(C(F)(F)F)OC(=O)N3)cn1 [Example 14, (S)-6-chloro-4-(cyclopropylethynyl)-7-((4-methoxy-6-oxopyrimidin-1(6H)-yl)methyl)-4-(trifluoromethyl)-1,4-dihydro-2H-benzo[d][1,3]oxazin-2-one]",63
2,"O=C1Nc2cc(Cn3cnccc3=O)c(Cl)cc2[C@@](C#CC2CC2)(C(F)(F)F)O1 [Example 15, (S)-6-chloro-4-(cyclopropylethynyl)-7-((6-oxopyrimidin-1(6H)-yl)methyl)-4-(trifluoromethyl)-1,4-dihydro-2H-benzo[d][1,3]oxazin-2-one]",63
3,"Nc1nccn(Cc2cc3c(cc2Cl)[C@@](C#CC2CC2)(C(F)(F)F)OC(=O)N3)c1=O [Example 16, (S)-7-((3-amino-2-oxopyrazin-1(2H)-yl)methyl)-6-chloro-4-(cyclopropylethynyl)-4-(trifluoromethyl)-1,4-dihydro-2H-benzo[d][1,3]oxazin-2-one]",113
4,"Cc1cc(=O)n(Cc2cc3c(cc2Cl)[C@@](C#CC2CC2)(C(F)(F)F)OC(=O)N3)cn1 [Example 17, (S)-6-chloro-4-(cyclopropylethynyl)-7-((4-methyl-6-oxopyrimidin-1(6H)-yl)methyl)-4-(trifluoromethyl)-1,4-dihydro-2H-benzo[d][1,3]oxazin-2-one]",92
5,"O=C1Nc2cc(Cn3cnc(C(F)F)cc3=O)c(Cl)cc2[C@@](C#CC2CC2)(C(F)(F)F)O1 [Example 18, (S)-6-chloro-4-(cyclopropylethynyl)-7-((4-(difluoromethyl)-6-oxopyrimidin-1(6H)-yl)methyl)-4-(trifluoromethyl)-1,4-dihydro-2H-benzo[d][1,3]oxazin-2-one]",83
6,"COCc1cc(=O)n(Cc2cc3c(cc2Cl)[C@@](C#CC2CC2)(C(F)(F)F)OC(=O)N3)cn1 [Example 19, (S)-6-chloro-4-(cyclopropylethynyl)-7-((4-(methoxymethyl)-6-oxopyrimidin-1(6H)-yl)methyl)-4-(trifluoromethyl)-1,4-dihydro-2H-benzo[d][1,3]oxazin-2-one]",128
7,"CC(F)(F)[C@@]1(C#CC2CC2)OC(=O)Nc2cc(Cn3cncc(N)c3=O)c(F)cc21 [Example 20, (S)-7-((5-amino-6-oxopyrimidin-1(6H)-yl)methyl)-4-(cyclopropylethynyl)-4-(1,1-difluoroethyl)-6-fluoro-1,4-dihydro-2H-benzo[d][1,3]oxazin-2-one]",11
8,"CC(F)(F)[C@@]1(C#CC2CC2)OC(=O)Nc2cc(Cn3ccnc(N)c3=O)c(F)cc21 [Example 21, (S)-7-((3-amino-2-oxopyrazin-1(2H)-yl)methyl)-4-(cyclopropylethynyl)-4-(1,1-difluoroethyl)-6-fluoro-1,4-dihydro-2H-benzo[d][1,3]oxazin-2-one]",12
9,"CC(F)(F)[C@@]1(C#CC2CC2)OC(=O)Nc2cc(Cn3cnccc3=O)c(F)cc21 [Example 22, (S)-4-(cyclopropylethynyl)-4-(1,1-difluoroethyl)-6-fluoro-7-((6-oxopyrimidin-1(6H)-yl)methyl)-1,4-dihydro-2H-benzo[d][1,3]oxazin-2-one]",12
10,"COCc1cc(=O)n(Cc2cc3c(cc2F)[C@@](C#CC2CC2)(C(C)(F)F)OC(=O)N3)cn1 [Example 23, (S)-4-(cyclopropylethynyl)-4-(1,1-difluoroethyl)-6-fluoro-7-((4-(methoxymethyl)-6-oxopyrimidin-1(6H)-yl)methyl)-1,4-dihydro-2H-benzo[d][1,3]oxazin-2-one]",16
11,"COc1cc(=O)n(Cc2cc3c(cc2F)[C@@](C#CC2CC2)(C(C)(F)F)OC(=O)N3)cn1 [Example 24, (S)-4-(cyclopropylethynyl)-4-(1,1-difluoroethyl)-6-fluoro-7-((4-methoxy-6-oxopyrimidin-1(6H)-yl)methyl)-1,4-dihydro-2H-benzo[d][1,3]oxazin-2-one]",9
12,"CC(F)(F)[C@@]1(C#CC2CC2)OC(=O)Nc2cc(Cn3ccnc(N)c3=O)c(Cl)cc21 [Example 25, (S)-7-((3-amino-2-oxopyrazin-1(2H)-yl)methyl)-6-chloro-4-(cyclopropylethynyl)-4-(1,1-difluoroethyl)-1,4-dihydro-2H-benzo[d][1,3]oxazin-2-one]",37
13,"CC(F)(F)[C@@]1(C#CC2CC2)OC(=O)Nc2cc(Cn3cnccc3=O)c(Cl)cc21 [Example 26, (S)-6-chloro-4-(cyclopropylethynyl)-4-(1,1-difluoroethyl)-7-((6-oxopyrimidin-1(6H)-yl)methyl)-1,4-dihydro-2H-benzo[d][1,3]oxazin-2-one]",16
14,"COCc1cc(=O)n(Cc2cc3c(cc2Cl)[C@@](C#CC2CC2)(C(C)(F)F)OC(=O)N3)cn1 [Example 27, (S)-6-chloro-4-(cyclopropylethynyl)-4-(1,1-difluoroethyl)-7-((4-(methoxymethyl)-6-oxopyrimidin-1(6H)-yl)methyl)-1,4-dihydro-2H-benzo[d][1,3]oxazin-2-one]",16
15,"Cc1cc(=O)n(Cc2cc3c(cc2Cl)[C@@](C#CC2CC2)(C(C)(F)F)OC(=O)N3)cn1 [Example 28, (S)-6-chloro-4-(cyclopropylethynyl)-4-(1,1-difluoroethyl)-7-((4-methyl-6-oxopyrimidin-1(6H)-yl)methyl)-1,4-dihydro-2H-benzo[d][1,3]oxazin-2-one]",15
16,"N#Cc1c(Cc2cc3c(cc2Cl)[C@@](C#CC2CC2)(C(F)(F)F)OC(=O)N3)ccnc1N [Example 33, (S)-2-amino-4-((6-chloro-4-(cyclopropylethynyl)-2-oxo-4-(trifluoromethyl)-1,4-dihydro-2H-benzo[d][1,3]oxazin-7-yl)methyl)nicotinonitrile]",213
17,"CC(F)(F)[C@@]1(C#CC2CC2)OC(=O)Nc2cc(Cc3ccnc(N)c3C#N)c(Cl)cc21 [Example 34, (S)-2-amino-4-((6-chloro-4-(cyclopropylethynyl)-4-(1,1-difluoroethyl)-2-oxo-1,4-dihydro-2H-benzo[d][1,3]oxazin-7-yl)methyl)nicotinonitrile]",76
